# According to patent US6136845A (The Texas A&M University System, priority 1998, dated 2000):
# Like-named read-outs stand apart in the source and are kept apart here.
# Key:
# mammary tumor [1] = conditions: cited from earlier work
# CYP1A1 [2] = conditions: cited from earlier work; for ED50 for induction of hepatic CYP1A1-dependent activity: 6-i-propyl value estimated
# rat uterus = conditions: immature female rat uterus; result in words; cited from earlier work
# CYP1A1 [3] = conditions: result in words; cited from earlier work
# liver = conditions: result in words; cited from earlier work
# [4] = system: MCF-7 human breast cancer cell lines; conditions: MCF-7 cells in culture; cited from earlier work
# [5] = in vivo; cited from earlier work
# [6] = system: 17β-estradiol (E2)-induced responses; conditions: rats, mice; cited from earlier work
# PR = conditions: 21 to 25 day-old female Sprague-Dawley rat uterus; cited from earlier work
# mammary tumor [7] = conditions: rodent models; cited from earlier work
# ER = conditions: 21 to 25 day-old female Sprague-Dawley rat uterus; cited from earlier work
# femurs = assay: Bone effects in ovariectomized rats (femur weight and length); format: in vivo, Sprague-Dawley rat; conditions: tamoxifen 0.4, 6-MCDF 0.8 mg/kg/day oral, 20 days
# Description: The ovariectomized rat is used as a model for osteoporosis.
# Rats were euthanized on day 21. After uteri were excised and processed, both left and right femurs were excised and the length measured with calipers. […] Wet weight was measured after residual connective tissue was stripped away. Dry weight was measured after the bones were dried for 12 ours at 130° C.
# uterus [8] = conditions: cited from earlier work
# [9] = Body and organ weights in DMBA-treated rats
# Description: (§1) Female virgin Sprague-Dawley rats were obtained from Harlan (Houston) and were allowed to acclimate for 10 days, allowed access to food and water ad libitum, and maintained on a 12 h light/dark schedule. Mammary tumors were induced in 50±3 day old-rats by administering a single gavage dose of 20 mg DMBA in 0.5 ml corn oil. […] Tumor sizes were measured with calipers, and volumes were calculated by formula (length×width×depth)/6π and are expressed as percent control. One week after their last injection, rats were euthanized by asphyxiation. All tumors were removed, weighed, and sectioned. One portion was frozen in liquid nitrogen for PCR analysis; one portion was placed in 10% formalin for histopathological analysis; and the majority was immediately homogenized for the preparation of microsomal and cytosolic fractions. Livers were perfused and weighed, and cytosol and microsomes were prepared as previously described.
# uterus [10] = assay: Uterine wet weight in ovariectomized rats (Example 6, Table 6); format: in vivo, Sprague-Dawley rat; conditions: tamoxifen 0.4, 6-MCDF 0.8 mg/kg/day oral, 20 days
# From the text: (§2) Rats were euthanized on day 21.
# uterine peroxidase [11] = assay: Uterine peroxidase activity in ovariectomized rats (Example 6, Table 6); format: in vivo, Sprague-Dawley rat; conditions: tamoxifen 0.4, 6-MCDF 0.8 mg/kg/day oral, 20 days
# From the text: as §2
# bone tissue = conditions: cited from earlier work
# [12] = system: uterine progesterone receptor; assay: Uterine progesterone receptor in ovariectomized rats (Example 6, Table 6); format: in vivo, Sprague-Dawley rat; conditions: tamoxifen 0.4, 6-MCDF 0.8 mg/kg/day oral, 20 days
# From the text: as §2
# [13] = Body and organ weights (Example 6, Table 7)
# Description: For Table 7 and FIGS. 3 and 3B, exact aged virgin female Sprague-Dawley rats were dosed on day 55 in the afternoon with 20 mg/rat 7,12-dimethylbenz[a]anthacene in a volume of 0.5 ml/rat corn oil (rats weigh approximately 165 g, resulting in 120 mg/kg DMBA and 3 ml/kg corn oil).
# mammary tumors = assay: DMBA-induced rat mammary tumor model, tumor volume and weight; format: in vivo, Sprague-Dawley rat; conditions: 20 days
# Description: as §1, with “One week after their last injection, rats were euthanized by asphyxiation.” left out
# uterine peroxidase [14] = assay: Uterine peroxidase assay in ovariectomized rats (Example 4); format: in vivo, Sprague-Dawley rat; conditions: 0.4 mg/kg/day each oral, 20 days
# From the text: as §2
# uterine cytosolic PR = assay: Uterine cytosolic PR levels in ovariectomized rats (Example 4); format: in vivo, Sprague-Dawley rat; conditions: 0.4 mg/kg/day each oral, 20 days
# From the text: as §2
# endometrial tumor = conditions: cited from earlier work
# uterus [15] = assay: Uterine wet weight in ovariectomized rats (Example 4); format: in vivo, Sprague-Dawley rat; conditions: 0.4 mg/kg/day each oral, 20 days
# From the text: (§3) Methods: Rats were ovariectomized at 97 days of age, and treatments began at 117 days of age. […] Rats were euthanized on day 21.
# [16] = Body and organ weights (Examples 4 and 5)
# Description: as §3
# For the control vehicle and the MCDF vehicle ethanol was added (5% v/v) and then evaporated away.
# [17] = each drug 0.4 mg/kg/day by gavage, DMBA rats
structure (smiles),measurement,setting,value
"Clc1cc(Cl)c2c(c1)oc1c(C3CCCCC3)cc(Cl)cc12 [6-CHDF, 6-cyclohexyl-1,3,8-triCDF]",antitumorigenic activity,"mammary tumor [1]; 5 mg/kg/wk, result in words",inactive
"CC(C)c1cc(Cl)cc2c1oc1cc(Cl)cc(Cl)c12 [6-i-propyl-1,3,8-triCDF]",ED50 (CYP1A1 induction)/ED50 (antiestrogenicity) ratio,"CYP1A1 [2]; rat, high ratio indicates low toxicity and high antiestrogenic potency","13,990-17,100"
same,ED50 values for antiestrogenicity,rat uterus,similar
"Cc1cc(Cl)cc2c1oc1c(Cl)c(Cl)c(Cl)cc12 [6-methyl-2,3,4,8-tetraCDF, 6-methyl-2,3,4,8-tetrachlorodibenzofuran]",ED50 for induction of hepatic CYP1A1-dependent activity,CYP1A1 [2]; rat,8.52 mmol/kg
same,ED50 values for antiestrogenicity,rat uterus,similar
"Cc1cc(Cl)c2oc3cc(Cl)cc(Cl)c3c2c1 [8-MCDF, 8-methyl-1,3,6-trichlorodibenzofuran]",induction of hepatic CYP1A1-dependent activity,CYP1A1 [3],not accompanied by any significant changes
same,growth inhibition,mammary tumor [1]; 5 mg/kg/wk,> 50%
same,mammary tumor growth,"mammary tumor [1]; 5, 10 or 25 mg/kg/wk, result in words",significantly inhibited
same,liver morphology,liver,not accompanied by any significant changes
same,liver/body weight ratios,liver,not accompanied by any significant changes
"Cc1cc2c(cc1Cl)oc1c(Cl)c(Cl)c(Cl)cc12 [8-methyl-2,3,4,7-tetraCDF]",ED50 for induction of hepatic CYP1A1-dependent activity,CYP1A1 [2]; rat,5.31 mmol/kg
same,ED50 values for antiestrogenicity,rat uterus,similar
"Clc1cc2c(cc1Cl)Oc1cc(Cl)c(Cl)cc1O2 [TCDD, 2,3,7,8-tetrachlorodibenzo-p-dioxin, reference compound]",induction of CYP1A1,CYP1A1 [2]; result in words,induces toxic and biochemical responses
same,antiestrogenic activity,[4],effective antiestrogen
same,hepatocarcinogenicity,[5],too hepatocarcinogenic
same,antiestrogenic activity,[6],effective antiestrogen
same,nuclear and cytosolic progesterone receptor (PR) binding,PR,dose-dependent decrease
same,mammary tumor growth,mammary tumor [7],inhibit mammary tumor growth
same,nuclear and cytosolic ER binding,ER,dose-dependent decrease
"CC/C(=C(\c1ccccc1)c1ccc(OCCN(C)C)cc1)c1ccccc1 [tamoxifen, reference compound]",Dry bone weight,femurs; control 0.180 ± 0.005,0.216 ± 0.005 % body weight
same,Wet bone weight,femurs; control 0.347 ± 0.009,0.403 ± 0.007 % body weight
same,uterine hyperplasia,uterus [8]; most animal models,induced uterine hyperplasia
same,rat uterine wet weight,"uterus [8]; rat, result in words",significant dose dependent increases
same,Uterine Wt.,"[9]; 0.4 mg/kg/day each, 20 days, control 0.212 ± 0.017",0.142 ± 0.006 % BW
same,Spleen Wt.,"[9]; 0.4 mg/kg/day each, 20 days, control 0.257 ± .022",0.236 ± 0.019 % BW
same,Kidney weight,"[9]; 0.4 mg/kg/day each, 20 days, control 0.349 ± 0.007",0.386 ± 0.012 % BW
same,Liver weight,"[9]; 0.4 mg/kg/day each, 20 days, control 3.13 ± 0.12",3.64 ± 0.18 % BW
same,Final Body Weight,"[9]; 0.4 mg/kg/day each, 20 days, control 250 ± 5",243 ± 4 g
same,Heart weight,"[9]; rat, in vivo",0.420 ± 0.018 % BW
same,Uterine wet weight (% body weight),uterus [10]; control 0.0583 ± 0.0055,0.0857 ± 0.0036 % body weight
same,Uterine wet weight,uterus [10]; control 0.171 ± 0.15,0.208 ± 0.009 g
same,Uterine Peroxidase Activity (Absorbance/g uterus),uterine peroxidase [11]; per g uterus,31.94 ± 0.26 Fold Increase over control
same,Uterine Peroxidase Activity (Absorbance/mg protein),uterine peroxidase [11]; per mg protein,26.76 ± 0.22 Fold Increase over control
same,Uterine Peroxidase Activity (Absorbance/uterus),uterine peroxidase [11]; per uterus,38.66 ± 0.32 Fold Increase over control
same,effect in bone,bone tissue; cycling rats (Takahashi et al. 1996),no effect
same,effect in bone tissue,bone tissue; ovariectomized rats (Turner et al. 1987),acted as an estrogen agonist
same,Uterine Progesterone Receptor (fmol/mg protein),[12]; control 198 ± 15,790 ± 21 fmol/mg protein
same,Uterine Progesterone Receptor (fmol/uterus),[12]; control 765 ± 69,9062 ± 244 fmol/uterus
same,Uterine Progesterone Receptor (fmol/g uterus),[12]; control 4462 ± 343,43666 ± 1175 fmol/g uterus
same,Rat weight at start of treatments,"[13]; Table 7, baseline, control 255 ± 3",261 ± 9 g
same,Spleen weight (% body weight),"[13]; Table 7, control 0.289 ± 0.018",0.254 ± 0.018 % body weight
same,Kidney weight (% body weight),"[13]; Table 7, control 0.334 ± 0.010",0.369 ± 0.017 % body weight
same,Heart weight (% body weight),"[13]; Table 7, control 0.360 ± 0.010",0.357 ± 0.023 % body weight
same,Rat weight prior to euthanasia,"[13]; Table 7, control 295 ± 11",242 ± 6 g
same,Tumor Wt (% Control),"mammary tumors; 0.4 mg/kg/day each, control 100 ± 27.7",61.5 ± 30.4 % Control
same,Final Tumor Volume (% Control),"mammary tumors; 0.4 mg/kg/day each, control 100 ± 31.5",41.5 ± 20 % Control
same,Final Tumor Volume,"mammary tumors; 0.4 mg/kg/day each, control 2734 ± 956",1135 ± 587 mm^3
same,% Inhibition tumor volume,mammary tumors; [17],58.5%
same,% Inhibition tumor weight,mammary tumors; [17],NS decrease
same,Uterine Peroxidase Assay (Abs/g uterus),uterine peroxidase [14]; per g uterus,17.7 ± 0.45 Fold Increase over Control
same,Uterine Peroxidase Assay (Abs/mg protein),uterine peroxidase [14]; per mg protein,17.5 ± 0.60 Fold Increase over Control
same,Uterine Peroxidase Assay (Abs/uterus),uterine peroxidase [14]; per uterus,28.41 ± 0.73 Fold Increase over Control
same,Uterine cytosolic PR levels (fmol/mg protein),uterine cytosolic PR; control 308 ± 142,674 ± 52 fmol/mg protein
same,Uterine cytosolic PR levels (fmol/uterus),uterine cytosolic PR; control 1100 ± 508,4501 ± 350 fmol/uterus
same,Uterine cytosolic PR levels (fmol/g uterus),uterine cytosolic PR; control 8368 ± 3868,21301 ± 1655 fmol/g uterus
same,risk for endometrial tumor formation,"endometrial tumor; 2843 patients, 20 mg/day (Fisher et al. 1994)",7.5 fold
same,risk for endometrial tumors,"endometrial tumor; Danish trial, 30 mg/day for one year",3.3 fold
same,risk for endometrial tumors,"endometrial tumor; Scottish and Manchester England trials, 20 mg/day",no increased risk
same,risk for endometrial tumors,"endometrial tumor; South-Swedish trial, 30 mg/day for one year",2.0 fold
same,risk for endometrial tumors,"endometrial tumor; Stockholm trial, 40 mg/day for 2 years",approximately 6 fold
same,risk/incidence of endometrial cancer,"endometrial tumor; women, breast cancer treatment, result in words",Risk of endometrial cancer increases
same,Uterine Wet Weight (% body wt),uterus [15]; control 0.045 ± 0.002,0.085 ± 0.004 % body wt
same,Uterine Wet Weight,uterus [15]; control 0.131 ± 0.006,0.211 ± 0.011 g
same,Rat weight at start of treatments,"[16]; Table 5, baseline, control 273.1 ± 8.1",275.7 ± 7.6 g
same,Spleen wet weight (% body wt),"[16]; Table 5, control 0.247 ± 0.007",0.252 ± .008 % body wt
same,kidney weight (% body wt),"[16]; Table 5, control 0.318 ± 0.010",0.334 ± 0.008 % body wt
same,Heart weight (% body wt),"[16]; Table 5, control 0.319 ± 0.006",0.346 ± 0.005 % body wt
same,Spleen wet weight,"[16]; Table 5, control 0.72O ± 0.012",0.631 ± 0.037 g
same,Kidney weight,"[16]; Table 5, control 0.933 ± 0.038",0.837 ± 0.045 g
same,Heart weight,"[16]; Table 5, control 0.935 ± 0.039",0.864 ± 0.031 g
same,Liver weight (% body wt),"[16]; Table 5, control 4.06 ± 0.23",4.26 ± 0.26 % body wt
same,Liver weight,"[16]; Table 5, control 11.88 ± 0.78",10.70 ± 0.92 g
same,Rat weight prior to euthanasia,"[16]; Table 5, control 293.2 ± 10.9",249.8 ± 7.6 g
